We go through 2 compounds from patent US6177592A, “Compounds” (priority 1997, dated 2001).

“Also recorded” adds a separate entry of the source.

One test deals with EAC. Nature of the test: EAC/DDY mice macrobiotic effect. In kind it is in vivo.
The subject of test [1] is HL-60 cells. Nature of the test: Apoptosis in HL-60 cells (apoptic bodies, DNA fragmentation). It is filed as cell-based, human. Conditions: for apoptic bodies in the cells: at each of the cell-growth-inhibiting concentrations. Here is the method:
(1) Each 0.5 ml of 0.2 mM CM, 0.8 mM CM or 1.6 mM CM was added to 4.5 ml of RPMI 1640 medium containing 10% of fetal calf serum and 2.5×10^5HL-60 cells (promyelocytic leukemia cell) (ATCC CCL-240) and incubated at 37° C. for 24 hours or 48 hours in the presence of 5% carbon dioxide gas and the numbers of viable cells were measured.
(§1) (2) To each of the wells of a 96-well microtiter plate was added 8, 40, 200 or 1000 μM aqueous solution of GM or 10 μl of water as a control. HL-60 (ATCC CCL-240) was suspended in an RPMI 1640 medium containing 10% of fetal calf serum to make the concentration 5×10^4 cells/ml and each 90 μl thereof was placed in each well of the above-mentioned microtiter plate and incubated at 37° C. for 48 hours in the presence of 5% carbon dioxide. Incubation was conducted for four hours more after addition of 10 μl of a solution (5 mg/ml) of 3-(4,5-dimethylthiazol-2-yl)-2,5-diphenyltetrzolium bromide (MTT; manufactured by Sigma) in a phosphate-buffered saline solution and the state of growth of the cells was observed under a microscope. Further, 100 μl of 2-propanol containing 0.04N hydrochloric acid was added followed by stirring and an absorbance at 590 nm was measured.
(4) HL-60 cells (ATCC CCL240) which were incubated at 37° C. in an RPMI 1640 medium (manufactured by Nissui) containing 10% of fetal calf serum (manufactured by Gibco) treated at 56° C. for 30 minutes were suspended in the above medium to make the concentration 2.5×10^5cells/4.5 ml. To this suspension was added 0.5 ml of 100 μM aqueous solution of GM (final concentration: 10 μM) followed by incubating at 37° C. in the presence of 5% carbon dioxide gas for 24 hours, 48 hours and 72 hours.
(§2) (5) To each well of the 96-well microtiter plate was added 4.12, 12.3, 37.0, 111, 333 or 1000 μM aqueous solution of GD or 10 μl of water as a control. HL-60 (ATCC CCL-240) was suspended in an RPMI 1640 medium containing 10% of fetal calf serum to make the concentration 5×10^4 cells/ml and each 90 μl thereof was placed in each well of the above-mentioned microtiter plate followed by incubating at 37° C. for 48 hours in the presence of 5% carbon dioxide gas. The incubation was conducted for four hours more after addition of 10 μl of 5 mg/ml solution of 3-(4,5-dimethylthiazol-2-yl)-2,5-diphenyltetrazolium bromide (MTT; manufactured by Sigma) in a phosphate-buffered saline solution and the state of growth of the cells was observed under a microscope. In the meanwhile, 100 μl of 2-propanol containing 0.04N HCl was added followed by well stirring and the absorbance at 590 nm was measured.

The next test relates to mouse leukemia P-388. Nature of the test: Mouse leukemia P-388 survival (macrobiotic effect) in DBA/2 mice. It is filed as in vivo. Conditions: 10 mg/kg/day i.p., five days. Here is the method:
GM was diluted with a physiological saline solution to a predetermined concentration and subjected to the following tests.
(2) Mouse leukemia P-388 (1.1×10^6 cells/mouse) was intraperitoneally injected to female DBA/2 mice (body weight: about 20 g) of seven weeks age. After that, GM, CM, GD or CD (10 mg/kg/day) was intraperitoneally injected for consecutive five clays. In the meanwhile, a physiological saline solution was intraperitoneally injected to the control group by the same manner. In the two group each consisting of eight mice, survived numbers, average survived days and macrobiotic rate of the mice were calculated.

Test [2] has as its system HL-60 cells. Nature of the test: MTT growth inhibition of HL-60. In kind it is cell-based, human. To be noted: Homo sapiens, HL-60, 48 hours; for activity at 10 µM / activity at 20 µM / activity at 40 µM: read-out: degree of cell growth (ratio of absorbance at 590 nm of sample-added section to control). The protocol: as §1
(3) To each well of the 96-well microtiter plate was added 100, 200 or 400 μM aqueous solution of GM or CM or 10 μl of water as a control and the inhibition activity of growth of HL-60 was measured by the same method as mentioned in Example 5-(2). The degree of cell growth was, however, expressed in terms of the ratio (%) of the absorbance at 590 nm of the sample-added section to that of the water-added section (the control).
as §2
(6) Cyclopentenone and L-cysteine hydrochloride were dissolved in a phosphate buffered saline solution (pH 7.2) to make their concentrations 55 mM and 80 mM, respectively and made to react at 37° C. for 15 minutes at pH 7.2. Apart of the reaction solution was analyzed by a reversed phase HPLC using a column of TSK gel ODS-80Ts (4.6 mm×250 mm; manufactured by Tosoh)at the flow rate of 1 ml/minute using 0.1% aqueous solution of trifluoroacetic acid as a mobile phase whereupon no cyclopentenone was detected. This reaction solution was a solution containing 55 mM of CD.
Degree of cell growth was, however, expressed in terms of the ratio (%) of the absorbance at 590 nm of the section to which the sample was added to that of the control where water was added.

`N[C@@H](CCC(=O)N[C@@H](CSC1C=C(O)C(=O)C1)C(=O)NCC(=O)O)C(=O)O` (some centres unmarked) [GM, 2-hydroxy-4-glutathion-S-yl-2-cyclopenten-1-one]: the macrobiotic effect entry in the test on EAC was “same macrobiotic effect”. Moreover, in the test on HL-60 cells [1] (10 μM GM, agarose gel electrophoresis), the “fragmentation of DNA into a chromatin unit” value is “fragmentation of DNA into a chromatin unit was observed”. Also, the “apoptic bodies in the cells” value in the test with HL-60 cells [1] is “apoptic bodies were formed in the cells; also recorded: aggregation of nuclei, reduction in size of the cells and production of apoptic bodies were detected”. The “macrobiotic effect (average survived days)” value in the test with mouse leukemia P-388 is recorded as “significant macrobiotic effect”. For the same compound, in the test on HL-60 cells [2], the activity at 10 µM worked out at 14.8%, the activity at 20 µM was 1.8% and the activity at 40 µM is 3.2%. The IC100 in the test on HL-60 cells [2] (MTT, final concentration, read-out: concentration at which growth of HL-60 cells was completely inhibited) amounted to 4 µM.

Consider `N[C@@H](CSC1C=C(O)C(=O)C1)C(=O)O` (some centres unmarked) [CM], for which the macrobiotic effect entry in the test on EAC is “same macrobiotic effect”. In addition, the “apoptic bodies in the cells” value with HL-60 cells [1] was “apoptic bodies were detected”. Also, the “macrobiotic effect (average survived days)” value with mouse leukemia P-388 was “significant macrobiotic effect”. Further, in the test on HL-60 cells [2], the activity at 10 µM amounted to 48.9%, the activity at 20 µM amounted to 16.1% and the activity at 40 µM was determined as 2.8%.
